Consider 69 compounds from the Kinase Knowledgebase extract (Sharma et al. 2016).

SMILES strings stand for the structures.

In this experiment the target is CDK2 (human) (UniProt P24941). The experiment in a line: Enzyme Assay.
Usually IC50 stands for the midpoint of a concentration-inhibition curve. High values mean a need for much substance, low ones inhibition by little substance. For `O=C(Nc1cccc(OCC2CNC2)n1)Nc1csc(Br)n1`, the IC50 was less than 500 nM.
Compound `CN1CC(COc2cccc(NC(=O)Nc3csc(-c4ccccc4)n3)n2)C1` registered an IC50 of less than 500 nM.
Take `O=C(Nc1cccc(OCC2CCNCC2)n1)Nc1csc(Cl)n1`: the IC50 was less than 500 nM.
For `O=C(Nc1cccc(N2CCN(c3ncccn3)CC2)n1)Nc1csc(-c2ccccc2)n1` the value was less than 500 nM.
For `O=C(Nc1cccc(OCC2CCOC2)n1)Nc1csc(-c2ccncc2)n1` (centres undefined) the value was less than 500 nM.
As to `CC(C)(C)OC(=O)N1CC(COc2cccc(NC(=O)Nc3csc(-c4ccccc4)n3)n2)C1`, the 50% inhibitory concentration (IC50) was less than 500 nM.
Turning to `CC1CCCN(Cc2cccc(NC(=O)Nc3csc(Cl)n3)n2)C1` (centres undefined), the half-inhibitory concentration (IC50) is less than 500 nM.
For the compound `CC(C)NCc1cccc(NC(=O)Nc2csc(-c3ncc(C(C)(C)C)o3)n2)n1`, the half-maximal inhibitory concentration (IC50) was less than 500 nM.
For `O=C(Nc1csc(-c2ccncc2)n1)Nc1ncccn1` the value was less than 500 nM.
On to `CN1CCC(COc2cccc(NC(=O)Nc3csc(-c4ccccc4)n3)n2)CC1`, for which the half-inhibitory concentration (IC50) is less than 500 nM.
With `O=C(Nc1cccc(OCC2CCNC2)n1)Nc1csc(-c2ccncc2)n1` (centres undefined), the half-maximal inhibitory concentration (IC50) was less than 500 nM.
For `CC(C)(C)OC(=O)N1CCCCC1CNc1cccc(NC(=O)Nc2csc(-c3ccncc3)n2)n1` (centres undefined) the value was less than 500 nM; for `CC1CCCC(C)N1Cc1cccc(NC(=O)Nc2csc(-c3ccncc3)n2)n1` (centres undefined), less than 500 nM.
As for `O=C(Nc1cccc(CN2CCCC2)n1)Nc1csc(-c2ccccc2)n1`, the half-inhibitory concentration (IC50) is less than 500 nM.
For `O=C(Nc1cccc(OCCC2CCNCC2)n1)Nc1csc(-c2ccccc2)n1` the value was less than 500 nM; for `CN1CCC[C@H]1COc1cccc(NC(=O)Nc2csc(-c3cccc(S(N)(=O)=O)c3)n2)n1`, less than 500 nM; for `O=C(Nc1cccc(NCCCO)n1)Nc1csc(-c2ccncc2)n1`, less than 500 nM.
For `Cn1cccc1C(=O)N1CCC(COc2cccc(NC(=O)Nc3csc(-c4ccncc4)n3)n2)C1` (centres undefined) the value was less than 500 nM.
For `O=C(Nc1cccc(OCC2CCNCC2)n1)Nc1csc(Br)n1`, the IC50 was less than 500 nM.
Take `CC(C)NCc1cccc(NC(=O)Nc2csc(-c3ccccc3)n2)n1`: the IC50 was less than 500 nM.
In the case of `CN1CCC[C@H]1COc1cccc(NC(=O)Nc2csc(CS(=O)(=O)c3cccs3)n2)n1`, the 50% inhibitory concentration (IC50) was less than 500 nM.
For `O=C(Nc1cccc(OCCC2CCNCC2)n1)Nc1csc(-c2cccs2)n1` the value was less than 500 nM; for `O=C(Nc1cccc(NCC2CCCCN2)n1)Nc1csc(-c2ccncc2)n1` (centres undefined), less than 500 nM; for `CC(C)N(Cc1cccc(NC(=O)Nc2csc(Cl)n2)n1)C(=O)OC(C)(C)C`, less than 500 nM.
With `O=C(Nc1cc(CN2CCCCC2)ccn1)Nc1csc(-c2ccccc2)n1`, the IC50 is less than 500 nM.
The compound `Cc1cc(C(=O)N2CCC(COc3cccc(NC(=O)Nc4csc(-c5ccncc5)n4)n3)C2)n(C(C)(C)C)n1` (centres undefined) gave a half-maximal inhibitory concentration (IC50) of less than 500 nM.
`CC1CCCN(Cc2cccc(NC(=O)Nc3csc(Br)n3)n2)C1` (centres undefined) displayed a half-inhibitory concentration (IC50) of less than 500 nM.
`CN1CCC(c2cccc(NC(=O)Nc3csc(-c4ccccc4)n3)n2)CC1` showed a half-inhibitory concentration (IC50) of less than 500 nM.
For `CN1CCC(COc2cccc(NC(=O)Nc3csc(-c4ccncc4)n3)n2)CC1` the value was less than 500 nM; for `CC(C)(C)OC(=O)N1CCC[C@@H]1COc1cccc(NC(=O)Nc2csc(-c3ccncc3)n2)n1`, less than 500 nM.
In turn, `O=C(Nc1cccc(OCCC2CCNCC2)n1)Nc1csc(Br)n1` yielded an IC50 of less than 500 nM.
`CCN1CCN(c2cccc(NC(=O)Nc3csc(-c4ccccc4)n3)n2)CC1`: the IC50 is less than 500 nM.
`O=C(Nc1cccc(OCC2CCNCC2)n1)Nc1csc(-c2ccncc2)n1` displayed a half-inhibitory concentration (IC50) of less than 500 nM.
`O=C(Nc1cccc(OCC2CCNCC2)n1)Nc1csc(-c2ccccc2)n1` returned a half-maximal inhibitory concentration (IC50) of less than 500 nM.
For `CN1CC=C(c2cccc(NC(=O)Nc3csc(-c4ccncc4)n3)n2)CC1` the value was less than 500 nM; for `CN1CCC[C@H]1COc1cccc(NC(=O)Nc2csc(-c3ccccc3)n2)n1`, less than 500 nM.
For `CC(C)(C)OC(=O)N1CCC(COc2cccc(NC(=O)Nc3csc(-c4ccncc4)n3)n2)CC1`, the IC50 is less than 500 nM.
As to `O=C(Nc1cc(C(=O)N2CCCCC2)ccn1)Nc1csc(-c2ccncc2)n1`, the 50% inhibitory concentration (IC50) was less than 500 nM.
Compound `O=C(Nc1cccc(OCCC2CCNCC2)n1)Nc1csc(C2CC2)n1` yielded a half-inhibitory concentration (IC50) of less than 500 nM.
Regarding `CC(C)(C)OC(=O)N1CC=C(c2cccc(NC(=O)Nc3csc(-c4ccncc4)n3)n2)CC1`, the IC50 is less than 500 nM.
`CN1CC(COc2cccc(NC(=O)Nc3csc(-c4ccncc4)n3)n2)C1` returned a concentration for half-maximal inhibition (IC50) of less than 500 nM.
`CC(C)(C)OC(=O)N1CCC(COc2cccc(NC(=O)Nc3csc(-c4ccncc4)n3)n2)C1` (centres undefined) returned an IC50 of less than 500 nM.
On to `O=C(Nc1cccc(OCC2CNC2)n1)Nc1csc(-c2ccccc2)n1`, for which the IC50 is less than 500 nM.
Turning to `O=C(Nc1cccc(NCCCO)n1)Nc1csc(Br)n1`, the IC50 is less than 500 nM.
For `O=C(Nc1cc(C(=O)N2CCCCC2)ccn1)Nc1csc(-c2ccccc2)n1` the value was less than 500 nM.
Compound `O=C(Nc1cccc(Oc2ccc(CN3CCCC3)cc2)n1)Nc1csc(-c2ccccc2)n1` returned a concentration for half-maximal inhibition (IC50) of less than 500 nM.
On to `C[C@H]1CCCN(Cc2cccc(NC(=O)Nc3csc(-c4ccncc4)n3)n2)C1`, for which the IC50 was less than 500 nM.
In turn, `CC(C)(C)c1cnc(-c2nc(NC(=O)Nc3cccc(OCCC4CCNCC4)n3)cs2)o1` had a half-inhibitory concentration (IC50) of less than 500 nM.
For the compound `CC(c1cccc(NC(=O)Nc2csc(-c3ccncc3)n2)n1)N1CCCCC1` (centres undefined), the 50% inhibitory concentration (IC50) is less than 500 nM.
Take `CC(C)NCc1cccc(NC(=O)Nc2csc(Cl)n2)n1`: the concentration for half-maximal inhibition (IC50) was less than 500 nM.
Compound `O=C(Nc1cccc(OCC2CCCO2)n1)Nc1csc(-c2ccncc2)n1` (centres undefined) returned a concentration for half-maximal inhibition (IC50) of less than 500 nM.
In the case of `CCN(CC)C(=O)c1ccnc(NC(=O)Nc2csc(-c3ccncc3)n2)c1`, the IC50 was less than 500 nM.
For the compound `CCN(CC)C(=O)c1cccc(NC(=O)Nc2csc(-c3ccccc3)n2)n1`, the half-inhibitory concentration (IC50) was less than 500 nM.
For `CN1CCC(c2cccc(NC(=O)Nc3csc(-c4ccncc4)n3)n2)CC1`, the IC50 is less than 500 nM.
In turn, `CCN(CC)Cc1ccnc(NC(=O)Nc2csc(-c3ccncc3)n2)c1` returned a half-maximal inhibitory concentration (IC50) of less than 500 nM.
For `O=C(Nc1cccc(CN2CCCCC2)n1)Nc1csc(Cl)n1` the value was less than 500 nM; for `O=C(Nc1cccc(OCCC2CCNCC2)n1)Nc1csc(Cl)n1`, less than 500 nM; for `CC(C)(C)OC(=O)N1CCC(CCOc2cccc(NC(=O)Nc3csc(-c4ccccc4)n3)n2)CC1`, less than 500 nM.
For the compound `O=C(Nc1cccc(C2=CCNCC2)n1)Nc1csc(-c2ccncc2)n1`, the IC50 is less than 500 nM.
`CC1CCCN(Cc2cccc(NC(=O)Nc3csc(-c4ccccc4)n3)n2)C1` (centres undefined) came in with a 50% inhibitory concentration (IC50) of less than 500 nM.
For `O=C(Nc1cccc(OCC2CNC2)n1)Nc1csc(Cl)n1` the value was less than 500 nM; for `CC(C)N(Cc1cccc(NC(=O)Nc2csc(Br)n2)n1)C(=O)OC(C)(C)C`, less than 500 nM.
`O=C(Nc1cc(C(=O)N2CCCCC2)ccn1)Nc1csc(Br)n1` registered an IC50 of less than 500 nM.
For `COc1cc(-c2nc(NC(=O)Nc3cccc(CN4CCCCC4)n3)cs2)ccn1` the value was less than 500 nM; for `CN1CC=C(c2cccc(NC(=O)Nc3csc(Br)n3)n2)CC1`, less than 500 nM; for `C[C@@H]1CCCN(Cc2cccc(NC(=O)Nc3csc(-c4ccncc4)n3)n2)C1`, less than 500 nM.
Take `CN1CCC[C@@H]1COc1cccc(NC(=O)Nc2csc(-c3ccncc3)n2)n1`: the IC50 was less than 500 nM.
`CN1CC=C(c2cccc(NC(=O)Nc3csc(-c4ccccc4)n3)n2)CC1` came in with an IC50 of less than 500 nM.
For `O=C(Nc1cccc(Oc2ccc(CN3CCCC3)cc2)n1)Nc1csc(Br)n1` the value was less than 500 nM.
